Bridge positions count the residues as written; N and C are the ends. Square brackets hold non-standard residues; d marks the D form. Peptide text beside a SMILES is read from it. * marks the point of attachment. X4 = CN(C)C(=N[C@@H](CCCNC(=N)N)C(=O)*)N(C)C; 2Nal = N[C@@H](Cc1ccc2ccccc2c1)C(=O)O; dCit = NC(=O)NCCC[C@@H](N)C(=O)O; Cit = NC(=O)NCCC[C@H](N)C(=O)O; Ahx = NCCCCCC(=O)O
Legend:
[1] = tested on: mouse collagen-induced arthritis; experiment: Mouse collagen-induced arthritis; format: in vivo, DBA/1JN mouse; conditions: known drugs p.o. daily for 2 weeks: Indomethacin 1 mg/kg, methotrexate 3 mg/kg, FK-506 10 mg/kg
Experimental: FK-506 was purified by a known method (Kino T. et al., J. Antibiot., 1987 40(9): 1249-55). […] For 2 weeks after the additional immunization, body weights and hindlimb thickness were measured and arthritis scoring was made. Arthritis scores were scored at 0-3 points of each limb, and evaluated by the total of the same (12 points being the full points; 0, normal; 1, mild swelling or swelling of a single digit; 2, moderate swelling or swelling of plural digits; 3, severe swelling). Two weeks after the immunization, four limbs and sera were picked. After coat blocking bovine type II collagen (10 μg/mL PBS solution) on the immunoplate, 100 μL of 1000 times diluted mouse serum was added, and kept at room temperature for 2 hours. After cleansing, anti-mouse IgG2a antibody (1000 times dilution) was added. After cleansing, TMB was added, kept at room temperature for 30 minutes, H2SO4 of equal amount was added, and A450 nm was measured. Indomethacin (1 mg/kg), methotrexate (3 mg/kg) and FK-506 (10 mg/kg) were suspended to 0.5% methyl cellulose, and orally administered every day for 2 weeks from the day of the additional immunization at the dose of 0.1 mL/10 g body weight. 0.5% methyl cellulose solution of the equal dose was orally administered to the control group. 4Fbenzoyl-TN14003 was dissolved to PBS, and continuously administered using Alzet osmotic pumps (Alza, 0.5 μL/hr 2 weeks). The osmotic pumps were implanted intradermally to the backs of the mice under ether anesthesia on the day before the additional immunization. As the control, pumps injected with PBS were similarly implanted. Evaluation of each drug was made for the value obtained 2 weeks after the additional immunization. Data were expressed as mean value±standard margin of error (n=8-12). Comparison between 2 groups was made by Student's t-test, p≦0.05 was valued as significant. Multiple comparison was made by Dunnett test, p≦0.05 was valued as significant.

CXCR4 receptor = molecular target: T1, CXCR4 receptor (Homo sapiens, UniProt P61073); experiment: Inhibition of 125I-CXCL12 binding to CXCR4 receptor on Jurkat cells; conditions: Table 1, 125I-CXCL12, 1 hour at room temperature, compounds as acetate salt, read-out: IC50 (nM), inhibitory activity against CXCL12 binding to CXCR4 receptor
T1 construct: 50 μL of Jurkat human T-cell leukemia cells (6×10^6 cells/mL) suspended in buffer; endogenous in cells; host or cells: Jurkat human T-cell leukemia cells
Experimental: After reaction, suction was made toward the reaction solution by 96 well GF/C filter plate, and each well's radioactivity was measured by top count. As the radioactivity index of 100% when the test compound was not added, and 0% when 100 nM of non-radioisotope-labeled CXCL12 was added, the inhibitory activity of each test compound was measured.

[2] = tested on: human breast cancer MDA-MB-231 cells; experiment: Inhibition of CXCL12-induced breast cancer cell migration (Transwell); format: cell-based; conditions: 10 nM of the antagonist; 100 nM CXCL12; 15 hours
Experimental: Transwell filter (polycarbonate filter, 8 μm diameter, Costar Company) was treated at 37° C. for 6 hours in 10 μg/mL fibronectin solution and air-dried. 100 nM of CXCL12 (R&D System Company) and 600 μL/well of buffer-A (0.1% bovine serum albumin, DMEM (GibcoBRL) containing 12 mM HEPES) containing the test compound were added to the lower chamber of the Transwell. The test compound and human breast cancer MDA-MB-231 cells (purchased from American Tissue Culture Collection), and 100 μL/well of buffer A containing 2×10^6 cells/mL were added to the upper chamber. […] Cutting off the filter part, adding 0.1 M sodium citrate/50% ethanol solution, and eluting crystal violet absorption at 550 nm was measured. […]
After 15 hours' incubation at 37° C. in 5% CO2 incubator, the upper surface of the filter was wiped and the cell was removed, and then the cell on the lower surface of the filter was fixed and stained with 25% methanol solution containing 0.5% crystal violet (Wako Pure Chemical Ind.), washed by distilled water and air-dried. Cutting off the filter part, adding 0.1 M sodium citrate/50% ethanol solution, and eluting crystal violet absorption at 550 nm was measured. […]

T1 sequence (P61073 whole entry): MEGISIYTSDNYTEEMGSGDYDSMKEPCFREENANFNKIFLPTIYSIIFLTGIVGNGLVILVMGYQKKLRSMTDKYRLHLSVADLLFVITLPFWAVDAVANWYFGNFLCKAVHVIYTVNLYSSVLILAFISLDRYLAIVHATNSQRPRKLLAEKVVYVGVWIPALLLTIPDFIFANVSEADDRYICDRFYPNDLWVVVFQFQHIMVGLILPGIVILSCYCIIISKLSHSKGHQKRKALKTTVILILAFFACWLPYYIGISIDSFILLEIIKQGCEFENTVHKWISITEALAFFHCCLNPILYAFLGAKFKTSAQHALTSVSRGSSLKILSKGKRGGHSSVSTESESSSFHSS

Structure (SMILES)	arthritis score [1]	hindlimb swelling [1]	IC50 (CXCR4 receptor)	CXCL12-induced migration of MDA-MB-231 cells [2]
COc1ccc2c(c1)c(CC(=O)O)c(C)n2C(=O)c1ccc(Cl)cc1 [Indomethacin, reference compound]	significant or evident inhibitory activity	significantly inhibited		
N=C(N)NCCC[C@H](NC(=O)[C@@H]1CSSC[C@H](NC(=O)[C@H](Cc2ccc3ccccc3c2)NC(=O)[C@H](CCCNC(=N)N)NC(=O)[C@@H](N)CCCNC(=N)N)C(=O)N[C@@H](Cc2ccc(O)cc2)C(=O)N[C@@H](CCCNC(=N)N)C(=O)N[C@@H](CCCCN)C(=O)N[C@H](CCC(=O)O)C(=O)N2CCC[C@H]2C(=O)N[C@@H](Cc2ccc(O)cc2)C(=O)N[C@@H](CCCNC(=N)N)C(=O)N[C@@H](CCCNC(N)=O)C(=O)N1)C(=O)O [TE14005, H-Arg-Arg-Nal-Cys-Tyr-Arg-Lys-DGlu-Pro-Tyr-Arg-Cit-Cys-Arg-OH] (H-RR[2Nal]CYRK[dE]PYR[Cit]CR-OH; disulfide 4-13)			2.2 nM	inhibited
N=C(N)NCCC[C@H](NC(=O)[C@@H]1CSSC[C@H](NC(=O)[C@H](Cc2ccc3ccccc3c2)NC(=O)[C@@H](N)CCCNC(=N)N)C(=O)N[C@@H](Cc2ccc(O)cc2)C(=O)N[C@@H](CCCNC(N)=O)C(=O)N[C@@H](CCCCN)C(=O)N[C@H](CCC(=O)O)C(=O)N2CCC[C@H]2C(=O)N[C@@H](Cc2ccc(O)cc2)C(=O)N[C@@H](CCCNC(=N)N)C(=O)N[C@@H](CCCNC(N)=O)C(=O)N1)C(N)=O [TF17, H-Arg-Nal-Cys-Tyr-Cit-Lys-DGlu-Pro-Tyr-Arg-Cit-Cys-Arg-NH2] (H-R[2Nal]CY[Cit]K[dE]PYR[Cit]CR-NH2; disulfide 3-12)			79 nM	
CN(C)C(=N[C@@H](CCCNC(=N)N)C(=O)N[C@@H](CCCNC(=N)N)C(=O)N[C@@H](Cc1ccc2ccccc2c1)C(=O)N[C@H]1CSSC[C@@H](C(=O)N[C@@H](CCCNC(=N)N)C(N)=O)NC(=O)[C@H](CCCNC(N)=O)NC(=O)[C@H](CCCNC(=N)N)NC(=O)[C@H](Cc2ccc(O)cc2)NC(=O)[C@@H]2CCCN2C(=O)[C@@H](CCCNC(N)=O)NC(=O)[C@H](CCCCN)NC(=O)[C@H](CCCNC(N)=O)NC(=O)[C@H](Cc2ccc(O)cc2)NC1=O)N(C)C [TF18, TMguanyl-Arg-Arg-Nal-Cys-Tyr-Cit-Lys-DCit-Pro-Tyr-Arg-Cit-Cys-Arg-NH2] (X4-R[2Nal]CY[Cit]K[dCit]PYR[Cit]CR-NH2; disulfide 3-12)			8 nM	
N=C(N)NCCC[C@H](NC(=O)[C@@H]1CSSC[C@H](NC(=O)[C@H](Cc2ccc3ccccc3c2)NC(=O)[C@H](CCCNC(=N)N)NC(=O)[C@H](CCCNC(=N)N)NC(=O)CCCCCN)C(=O)N[C@@H](Cc2ccc(O)cc2)C(=O)N[C@@H](CCCNC(N)=O)C(=O)N[C@@H](CCCCN)C(=O)N[C@H](CCCNC(N)=O)C(=O)N2CCC[C@H]2C(=O)N[C@@H](Cc2ccc(O)cc2)C(=O)N[C@@H](CCCNC(=N)N)C(=O)N[C@@H](CCCNC(N)=O)C(=O)N1)C(N)=O [TF19, ACA-Arg-Arg-Nal-Cys-Tyr-Cit-Lys-DCit-Pro-Tyr-Arg-Cit-Cys-Arg-NH2] (H-[Ahx]RR[2Nal]CY[Cit]K[dCit]PYR[Cit]CR-NH2; disulfide 5-14)			4.5 nM	
CN(Cc1cnc2nc(N)nc(N)c2n1)c1ccc(C(=O)N[C@@H](CCC(=O)O)C(=O)O)cc1 [methotrexate, reference compound]	significant or evident inhibitory activity	significantly inhibited		

— patent publication US8017585B2, “CXCR4 antagonist and use thereof” (priority 2002, dated 2011)
